Data set [1] concerns NSAID-induced gastric lesions. As to the kind of experiment: Gastric injury caused by aspirin/NSAIDs in pre-sensitised (pre-inflamed) rats, gastroprotection assay. The note with it: for incidence of gastric lesions and bleeding: pre-inflamed rats, aspirin 100 mg/kg, Naproxen 10 mg/kg, Ketoprofen 5 mg/kg orally, Piroxicam 5 mg/kg intraperitoneally. The procedure:
This model comprises oral or parenteral non-steroidal anti-inflammatory drugs (NSAIDs) given to rats whose gastrointestinal mucosa is pre-sensitized by prior development of arthritis or oleyl alcohol-induced inflammation. The animals are pre-sensitized by injection of an arthritogenic adjuvant or 0.1 ml oleyl alcohol 5 days prior to the assay.
The disease stress was induced five days previously either by injecting an arthritigenic adjuvant or 0.1 ml oleyl alcohol into the tail base to incite severe local inflammation. […] A-CSE or S-CSE was given orally within 20 seconds of the aspirin/NSAID. The number (N) and severity (S, graded on a score of 0 to 4 based on increasing area of injury) of gastric lesions as well as the percentage incidence of animals (%I) with gastric damage was recorded. The lesion index (LI) was then calculated as: LI=N/n+S/n+%I/10, where n=number of animals per group.
Gastroprotective activity was assessed in fasted (overnight) arthritic rats challenged with 50 mg/kg Ibuprofen given orally to induce gastric bleeding. Test preparations, dispersed with Tween-20, were given orally 20 seconds prior to Ibuprofen.
The procedure is further elaborated in K. Rainsford and M. Whitehouse [J. Pharm.

The test system of data set [2] is adjuvant-induced arthritis. The experiment in a line: Experimental (adjuvant-induced) polyarthritis in rats, treatment of established arthritis. Format: in vivo, rat. The note with it: for anti-inflammatory activity: tested at 50 mg/kg; for Mean % Inhibition of Arthritis Score / Mean % Inhibition of Fore Paw Swelling / Mean % Inhibition of Rear Paw Swelling: per os, mg/kg per day: A-CSE 350, S-CSE 50, Aspirin 150 × 2, Ibuprofen 50, Naproxen 25; for Mean % Inhibition of Arthritis Score: days 10-13, day 14, independent observer; for Mean % Inhibition of Fore Paw Swelling / Mean % Inhibition of Rear Paw Swelling: days 10-13, measured day 14.

For data set [3], the system named is adjuvant arthritis (onset). The experiment in a line: Arthritis-ablating activity: test material incorporated into the arthritigenic adjuvant. It counts as in vivo, female Dark Agouti rats. Conditions: for activity in preventing (ablating) adjuvant arthritis: summary of Table 3; for effect on arthritis score (AS): most tested at 10 mg/rat, no effect = AS 2.5+.
For data set [4], the system named is carrageenan-induced paw edema. As to the kind of experiment: Carrageenan-induced paw edema (acute inflammation). It counts as in vivo, rat. The note with it: for ED50: Rattus norvegicus, oral, 45 minutes before carrageenan, read-out: effective dose for 50 percent reduction of the paw edema (ED50). Here is the method:
To evaluate early i.e. rapid-acting therapeutic efficacy, carrageenan (1 mg in 0.1 ml saline) was injected into rear paws of rats to elicit a rapid onset (acute) inflammation. The ensuing paw edema was measured by the increase in paw thickness with a micrometer over the subsequent three hour period at hourly intervals.
The test drug formulations were given orally 45 minutes before injecting the carrageenan.
In general terms: Carrageenan injected into the paw causes an acute inflammation.

The subject of data set [5] is adjuvant arthritis (onset). The note with it: Haynes D R et al. Inflamm Res 45:159-165, 1996; cited from earlier work.
For data set [6], the system named is production of prostaglandin E2. The experiment in a line: Production of prostaglandin E2 by pig gastric (fundic) mucosal explants. It counts as cell-based. The note with it: 10 μmol/L, pure samples.

One may read the ED50 as the midpoint of the dose-response relation.

In the case of `CN1C(C(=O)Nc2ccccn2)=C(O)c2ccccc2S1(=O)=O` [Piroxicam], the “incidence of gastric lesions and bleeding” value in data set [1] turned out to be 90%.

As for `CCCCC1OC(=O)c2ccccc21` (stereo not shown) [Butylphthalide], the anti-inflammatory activity entry in data set [2] is listed as “no anti-inflammatory or gastroprotective activity”. Besides, the gastroprotective activity entry in data set [1] (tested at 50 mg/kg) is recorded as “no anti-inflammatory or gastroprotective activity”. Moreover, the “activity in preventing (ablating) adjuvant arthritis” value (“activity in preventing” below) in data set [3] was “without such activity”.

Consider `CC(C)Cc1ccc(C(C)C(=O)O)cc1` (stereo not shown) [Ibuprofen], for which the “suppression of arthritic paw swelling / inhibition of polyarthritis” value in data set [2] (four successive oral doses, Ibuprofen 30 mg/kg, A-CSE 50 mg/kg, S-CSE 5 mg/kg) is on record as 38%. Further, in data set [2], the “Mean % Inhibition of Arthritis Score” value is 36%, the “Mean % Inhibition of Fore Paw Swelling” value amounted to 39% and the “Mean % Inhibition of Rear Paw Swelling” value is given as 38%. The “mean number of haemorrhagic lesions (+/−SD)” value in data set [1] (50 mg/kg, free acid or Nurofen, suspension 5 ml/kg, pre-inflamed female Wistar rats, n=90) is 42+/−06. The “animals with no macroscopically detectable gastric bleeding” value in data set [1] (Ibuprofen 50 mg/kg with no celery (n=90 rats) or with celery extracts (n=67 rats)) was determined as 7%. The “activity in preventing” value in data set [3] is “not shared”. Also, in data set [4] (Ibuprofen 15 mg/kg, Ketoprofen 1 mg/kg, alone, n=6, not statistically significant), the “inhibition of paw swelling” value came to 19%. For the same compound, the ED50 in data set [4] was 45 mg/kg.

On to `O=C(O)c1ccccc1Nc1cc(Cl)ccc1C(=O)O` [lobenzarit], for which the “ablating the onset of arthritis” value in data set [5] is “capable of ablating the onset of arthritis”.

On to `O=c1c(O)c(-c2cc(O)c(O)c(O)c2)oc2cc(O)cc(O)c12` [myricetin], for which, in data set [6], the “effect on production of prostaglandin E2” value was “inhibited”.

In the case of `C=C(C)[C@H]1CC=C(C)CC1` [Limonene], the anti-inflammatory activity result in data set [2] was “no anti-inflammatory or gastroprotective activity”. In addition, in data set [3], the “activity in preventing” value was “without such activity”. Moreover, in data set [6], the “effect on production of prostaglandin E2” value is “not”.

Consider `COc1c2ccoc2cc2oc(=O)ccc12` [Bergapten], for which the “activity in preventing” value in data set [3] is recorded as “without such activity”.

Regarding `O=C(O)CCCc1ccc(N(CCCl)CCCl)cc1` [chlorambucil], the “effect on arthritis score (AS)” value in data set [3] is reported as “no effect”.

As to `O=c1c(O)c(-c2ccc(O)c(O)c2)oc2cc(O)cc(O)c12` [quercetin], the “effect on production of prostaglandin E2” value in data set [6] was “inhibited”.

On to `CC(=O)Oc1ccccc1C(=O)O` [Aspirin], for which, in data set [2], the “Mean % Inhibition of Arthritis Score” value is reported as 25%, the “Mean % Inhibition of Fore Paw Swelling” value is 24% and the “Mean % Inhibition of Rear Paw Swelling” value is reported as 40%. Also, the “incidence of gastric lesions and bleeding” value in data set [1] is reported as 90%. In addition, the “activity in preventing” value in data set [3] was “not shared”. For the same compound, in data set [4], the ED50 was determined as 200 mg/kg.

For the compound `COc1ccc2cc([C@H](C)C(=O)O)ccc2c1` [Naproxen], in data set [2], the “Mean % Inhibition of Arthritis Score” value is 64%, the “Mean % Inhibition of Fore Paw Swelling” value worked out at 36% and the “Mean % Inhibition of Rear Paw Swelling” value was 57%. Further, the “activity in preventing” value in data set [3] was “not shared”.

Consider `CCCCCCCCCCC/C=C\CCCCC(=O)OC` [Petroselenic acid methyl ester], for which, in data set [3], the “activity in preventing” value is listed as “without such activity”.

As to `Nc1ccc(S(=O)(=O)c2ccc(N)cc2)cc1` [dapsone], the “effect on arthritis score (AS)” value in data set [3] is on record as “no effect”.

On to `Cn1cnc([N+](=O)[O-])c1Sc1ncnc2nc[nH]c12` [azathioprine], for which the “effect on arthritis score (AS)” value in data set [3] was “no effect”.

These data come from patent US6761913B2, “Extracts of celery seed for the prevention and treatment of pain, inflammation and gastrointestinal irritation” (priority 1998, dated 2004).
